Reference: US20230101747A1 (Schrödinger, Inc., priority 2019, published 2023)
Read-outs that look alike come from different tables or passages of the source.

Key:
[1] = system: phosphorylation of MCM2 S53 (CDC7 substrate) in colo205 cells; test: Phosphorylated MCM2 MSD electrochemiluminescence assay; assay type: cell-based; settings: Homo sapiens, read-out: pMCM2-S53 MSD Colo205 IC50
Method: Phosphorylated MCM2 MSD Electrochemiluminescence Assay
The effect of CDC7 inhibitors on cellular phosphorylation of the CDC7 substrate MCM2 was determined using the following protocol:
A total of 40,000 colo205 cells in 100 uL culture medium (1640 medium+10% Fetal bovine serum+1% Penicillin-Streptomycin) were plated in 96-well cell culture plates and allowed to attach for 6 hours. 3-fold serial dilutions of test compounds were prepared in completed PBS at 25× final concentration and 4 uL of each were added to the cells and incubated for 20 hours at 37° C., 5% CO2. Each concentration was tested in duplicate. After the 20 h incubation, cells were washed with 150 uL PBS and lysed with 40 uL MSD lysis buffer (obtained from Meso Scale Diagnostics) supplied with 1× complete ULTRA cocktail inhibitor (obtained from Roche). To detect phosphorylation of MCM2 S53, 30 μL of capture antibody solution (obtained from Abnova, catalog number H00004171-M01, 1:500) was added to each well of MULTI-ARRAY 96-well High Bind Plate, and incubated overnight. The antibody solution was removed, wells blocked with BSA solution and plates washed, followed by addition of 30 ul of cell lysate per well. After 2 h incubation, plates were washed. 30 μL of 1× detection antibody solution (obtained from Abcam, catalog number ab109133, 1:1000) was then added to each well and incubate for 1 hour. Plates were washed and 30 μL of 1× secondary antibody solution (obtained from MSD, catalog number R32AB-1, 1:5000) was added to each well and incubate for 1 hour. Plates were washed and 150 μL of 1× Read Buffer T was added to each well of the MSD plate. The electrochemiluminescence signal was measured on a MESO SECTOR S600 plate reader. The percentage of remaining phosphorylated MCM2 signal was calculated following the equation below.
HC (high control): Cells treated with DMSO Cpds: Cells treated with test compounds LC (low control): Cells treated with positive control CDC7 inhibitor

[2] = molecular target: T1, Full length human CDC7 protein co-expressed with DBF4 (Homo sapiens, UniProt O00311); test: CDC7 kinase biochemical assay (ADP-Glo, PDKtide substrate); settings: 0.1 nM CDC7/DBF4, 1 uM ATP, 10 uM PDKtide, 4 h; read-out: CDC7 ADP-Glo PDKtide IC50
T1 construct: Full length human CDC7 protein co-expressed with DBF4; purchased SignalChem (China)
Outline: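 Full-length human CDC7 co-expressed with DBF4 (0.1 nM) incubated 4 h with 1 uM ATP and 10 uM PDKtide in 40 mM Tris pH 7.5, 20 mM MgCl2, 0.1 mg/ml BSA, 50 uM DTT. ADP formed read by ADP-Glo luminescence. % inhibition scaled between DMSO (high) and reference CDC7 inhibitor (low) controls.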

[3] = COLO 205, colo205 cells, 20 h incubation

T1 sequence (O00311 whole entry): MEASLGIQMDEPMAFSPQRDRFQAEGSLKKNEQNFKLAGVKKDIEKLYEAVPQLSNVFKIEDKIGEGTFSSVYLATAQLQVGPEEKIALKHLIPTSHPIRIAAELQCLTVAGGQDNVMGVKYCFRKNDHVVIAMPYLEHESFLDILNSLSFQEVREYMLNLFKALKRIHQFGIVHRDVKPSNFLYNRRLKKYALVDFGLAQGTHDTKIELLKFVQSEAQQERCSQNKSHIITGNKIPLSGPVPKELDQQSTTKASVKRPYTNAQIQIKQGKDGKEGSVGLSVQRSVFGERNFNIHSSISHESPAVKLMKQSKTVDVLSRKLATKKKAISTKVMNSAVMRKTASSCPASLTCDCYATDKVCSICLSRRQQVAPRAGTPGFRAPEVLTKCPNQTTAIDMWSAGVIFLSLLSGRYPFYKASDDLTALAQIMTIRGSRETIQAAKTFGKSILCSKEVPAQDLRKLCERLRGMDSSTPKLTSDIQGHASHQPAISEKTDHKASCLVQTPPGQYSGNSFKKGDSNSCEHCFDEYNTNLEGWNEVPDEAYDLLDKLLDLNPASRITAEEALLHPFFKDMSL
T1 sequence (Q9UBU7 whole entry partner): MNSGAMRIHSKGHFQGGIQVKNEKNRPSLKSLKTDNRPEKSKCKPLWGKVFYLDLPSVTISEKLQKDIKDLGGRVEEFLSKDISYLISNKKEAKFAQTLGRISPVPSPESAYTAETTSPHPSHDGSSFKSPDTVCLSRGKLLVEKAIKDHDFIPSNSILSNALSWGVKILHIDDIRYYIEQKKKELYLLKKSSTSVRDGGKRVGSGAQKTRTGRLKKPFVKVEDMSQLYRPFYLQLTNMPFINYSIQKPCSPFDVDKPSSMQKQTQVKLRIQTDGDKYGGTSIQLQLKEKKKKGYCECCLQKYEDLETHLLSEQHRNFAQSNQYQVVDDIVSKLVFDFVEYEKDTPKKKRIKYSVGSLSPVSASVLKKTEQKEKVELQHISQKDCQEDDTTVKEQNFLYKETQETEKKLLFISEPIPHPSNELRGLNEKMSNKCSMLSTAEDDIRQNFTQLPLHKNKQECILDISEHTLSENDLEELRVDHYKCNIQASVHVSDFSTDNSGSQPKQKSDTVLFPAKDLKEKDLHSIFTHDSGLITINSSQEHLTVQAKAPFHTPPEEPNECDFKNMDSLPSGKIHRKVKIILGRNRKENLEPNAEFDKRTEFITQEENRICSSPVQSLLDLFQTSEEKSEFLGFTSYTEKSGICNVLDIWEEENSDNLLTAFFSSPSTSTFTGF

O=C1NC[C@@H](C2CCOCC2)N2CCOc3c(-c4cn[nH]c4)sc1c32 (single isomer, unassigned) [Compound 27]
IC50 [1, 3]: 256 nM
IC50 [2]: < 1 nM

O=C1N[C@@H]([C@H]2CCCO2)CN2CC(F)(F)Cc3c(-c4cn[nH]c4)sc1c32 (single isomer, unassigned) [Compound 118]
IC50 [1, 3]: 5 nM
IC50 [2]: < 1 nM

O=C1N[C@@H](C23CCC(CC2)O3)CN2CC(F)(F)Cc3c(-c4cn[nH]c4)sc1c32 (single isomer, unassigned) [Compound 121]
IC50 [1, 3]: 12 nM
IC50 [2]: < 1 nM

COC[C@H]1CN2C[C@@H](F)Cc3c(-c4cn[nH]c4)sc(c32)C(=O)N1 (single isomer, unassigned) [Compound 125]
IC50 [1, 3]: 12 nM
IC50 [2]: < 1 nM

COC[C@H]1CN2C[C@H](F)Cc3c(-c4cn[nH]c4)sc(c32)C(=O)N1 (single isomer, unassigned) [Compound 126]
IC50 [1, 3]: 902 nM
IC50 [2]: < 1 nM

C[C@H]1CN2CCOc3c(-c4cn[nH]c4)sc(c32)C(=O)N1 [Compound 16, (S)-7-methyl-2-(1H-pyrazol-4-yl)-4,5,7,8-tetrahydro-3-oxa-1-thia-5a,8-diazabenzo[cd]azulen-9(6H)-one]
IC50 [1, 3]: 16 nM
IC50 [2]: < 1 nM

O=C1N[C@H](C2CCC2)CN2CCOc3c(-c4cn[nH]c4)sc1c32 [Compound 19, (R)-7-cyclobutyl-2-(1H-pyrazol-4-yl)-4,5,7,8-tetrahydro-3-oxa-1-thia-5a,8-diazabenzo[cd]azulen-9(6H)-one]
IC50 [1, 3]: 57 nM
IC50 [2]: < 1 nM

C[C@H]1CN2CCCc3c(-c4cn[nH]c4)sc(c32)C(=O)N1 [Compound 30, (S)-7-methyl-2-(1H-pyrazol-4-yl)-4,5,7,8-tetrahydro-3H-1-thia-5a,8-diazabenzo[cd]azulen-9(6H)-one]
IC50 [1, 3]: 41 nM
IC50 [2]: < 1 nM

O=C1N[C@@H](CO)CN2CCCc3c(-c4cn[nH]c4)sc1c32 [Compound 32, (R)-7-(hydroxymethyl)-2-(1H-pyrazol-4-yl)-4,5,7,8-tetrahydro-3H-1-thia-5a,8-diazabenzo[cd]azulen-9(6H)-one]
IC50 [1, 3]: 812 nM
IC50 [2]: < 1 nM

O=C1NC[C@H](CO)N2CCOc3c(-c4cn[nH]c4)sc1c32 [Compound 33, (R)-6-(hydroxymethyl)-2-(1H-pyrazol-4-yl)-4,5,7,8-tetrahydro-3-oxa-1-thia-5a,8-diazabenzo[cd]azulen-9(6H)-one]
IC50 [1, 3]: 80 nM
IC50 [2]: < 1 nM

O=C1NC[C@@H](COCc2ccccc2)N2CCOc3c(-c4cn[nH]c4)sc1c32 [Compound 38, (S)-6-((benzyloxy)methyl)-2-(1H-pyrazol-4-yl)-4,5,7,8-tetrahydro-3-oxa-1-thia-5a,8-diazabenzo[cd]azulen-9(6H)-one]
IC50 [1, 3]: 1810 nM
IC50 [2]: 1 to 10 nM

O=C1N[C@H](CO)CN2CCOc3c(-c4cn[nH]c4)sc1c32 [Compound 39, (S)-7-(hydroxymethyl)-2-(1H-pyrazol-4-yl)-4,5,7,8-tetrahydro-3-oxa-1-thia-5a,8-diazabenzo[cd]azulen-9(6H)-one]
IC50 [1, 3]: 265 nM
IC50 [2]: < 1 nM

Cc1cnn(C[C@H]2CN3CCOc4c(-c5cn[nH]c5)sc(c43)C(=O)N2)c1 [Compound 41, (R)-7-((4-methyl-1H-pyrazol-1-yl)methyl)-2-(1H-pyrazol-4-yl)-4,5,7,8-tetrahydro-3-oxa-1-thia-5a,8-diazabenzo[cd]azulen-9(6H)-one]
IC50 [1, 3]: 87 nM
IC50 [2]: < 1 nM

O=C1NCCN2c3c1sc(-c1cn[nH]c1)c3OC[C@@H]2CO [Compound 49, (S)-5-(hydroxymethyl)-2-(1H-pyrazol-4-yl)-4,5,7,8-tetrahydro-3-oxa-1-thia-5a,8-diazabenzo[cd]azulen-9(6H)-one]
IC50 [1, 3]: 509 nM
IC50 [2]: < 1 nM

O=C1NC[C@H](CO)N2CCOc3c(-c4ccncc4)sc1c32 [Compound 50, (R)-6-(hydroxymethyl)-2-(pyridin-4-yl)-4,5,7,8-tetrahydro-3-oxa-1-thia-5a,8-diazabenzo[cd]azulen-9(6H)-one]
IC50 [1, 3]: 268 nM
IC50 [2]: < 1 nM

O=C1NC2(CCC2)CN2CCOc3c(-c4cn[nH]c4)sc1c32 [Compound 51, 2-(1H-pyrazol-4-yl)-4,5-dihydro-6H-3-oxa-1-thia-5a,8-diazaspiro[benzo[cd]azulene-7,1′-cyclobutan]-2,2a1(9a)-dien-9(8H)-one]
IC50 ([1]; COLO 205, 20 h): 18 nM
IC50 [2]: < 1 nM

COC[C@@H]1CN2CCOc3c(-c4cn[nH]c4)sc(c32)C(=O)N1 [Compound 54, (S)-7-(methoxymethyl)-2-(1H-pyrazol-4-yl)-4,5,7,8-tetrahydro-3-oxa-1-thia-5a,8-diazabenzo[cd]azulen-9(6H)-one]
IC50 [1, 3]: 110 nM
IC50 [2]: < 1 nM

COC[C@@H]1CNC(=O)c2sc(-c3cn[nH]c3)c3c2N1CCO3 [Compound 55, (S)-6-(methoxymethyl)-2-(1H-pyrazol-4-yl)-4,5,7,8-tetrahydro-3-oxa-1-thia-5a,8-diazabenzo[cd]azulen-9(6H)-one]
IC50 [1, 3]: 21 nM
IC50 [2]: < 1 nM

COC1(C[C@@H]2CNC(=O)c3sc(-c4cn[nH]c4)c4c3N2CCC4)CC1 [Compound 91, (9R)-9-[(1-methoxycyclopropyl)methyl]-3-(1H-pyrazol-4-yl)-2-thia-8,11-diazatricyclo [6.4.1.0^4,13]trideca-1(13),3-dien-12-one]
IC50 [1, 3]: 660 nM
IC50 [2]: < 1 nM

COC[C@@H]1CNC(=O)c2sc(-c3ccncc3)c3c2N1CCO3 [Compound 105, (S)-6-(methoxymethyl)-2-(pyridin-4-yl)-4,5,7,8-tetrahydro-3-oxa-1-thia-5a,8-diazabenzo[cd]azulen-9(6H)-one]
IC50 [2]: < 1 nM

O=C1N[C@H](C2CCC2)CN2CCOc3c(-c4ccncc4)sc1c32 [Compound 106, (R)-7-cyclobutyl-2-(pyridin-4-yl)-4,5,7,8-tetrahydro-3-oxa-1-thia-5a,8-diazabenzo[cd]azulen-9(6H)-one]
IC50 [2]: < 1 nM

CC(C)(O)C[C@H]1CN2CC(F)(F)Oc3c(-c4cn[nH]c4)sc(c32)C(=O)N1 [Compound 116, (S)-4,4-difluoro-7-(2-hydroxy-2-methylpropyl)-2-(1H-pyrazol-4-yl)-4,5,7,8-tetrahydro-3-oxa-1-thia-5a,8-diazabenzo[cd]azulen-9(6H)-one]
IC50 [2]: < 1 nM

CC(C)(O)C[C@@H]1CN2CC(F)(F)Oc3c(-c4cn[nH]c4)sc(c32)C(=O)N1 [Compound 117, (R)-4,4-difluoro-7-(2-hydroxy-2-methylpropyl)-2-(1H-pyrazol-4-yl)-4,5,7,8-tetrahydro-3-oxa-1-thia-5a,8-diazabenzo-[cd]azulen-9(6H)-one]
IC50 [2]: < 1 nM

CC(C)(O)C[C@@H]1CN2CC(F)(F)Cc3c(-c4cn[nH]c4)sc(c32)C(=O)N1 [Compound 131, (R)-4,4-difluoro-7-(2-hydroxy-2-methylpropyl)-2-(1H-pyrazol-4-yl)-4,5,7,8-tetrahydro-3H-1-thia-5a,8-diazabenzo[cd]azulen-9(6H)-one]
IC50 [2]: < 1 nM

CC(C)(O)C[C@H]1CN2CC(F)(F)Cc3c(-c4cn[nH]c4)sc(c32)C(=O)N1 [Compound 132, (S)-4,4-difluoro-7-(2-hydroxy-2-methylpropyl)-2-(1H-pyrazol-4-yl)-4,5,7,8-tetrahydro-3H-1-thia-5a,8-diazabenzo[cd]azulen-9(6H)-one]
IC50 [2]: < 1 nM

COC[C@@H]1CNC(=O)c2sc(-c3cn[nH]c3)c3c2N1CC(F)(F)O3 [Compound 133, (S)-4,4-difluoro-6-(methoxymethyl)-2-(1H-pyrazol-4-yl)-4,5,7,8-tetrahydro-3-oxa-1-thia-5a,8-diazabenzo[cd]azulen-9(6H)-one]
IC50 [2]: < 1 nM

O=C1N[C@H](CN2CCOCC2)CN2CC(F)(F)Cc3c(-c4cn[nH]c4)sc1c32 [Compound 134, (R)-4,4-difluoro-7-(morpholinomethyl)-2-(1H-pyrazol-4-yl)-4,5,7,8-tetrahydro-3H-1-thia-5a,8-diazabenzo[cd]azulen-9(6H)-one]
IC50 [2]: 1 to 10 nM

COC1CN(C[C@H]2CN3CC(F)(F)Cc4c(-c5cn[nH]c5)sc(c43)C(=O)N2)C1 [Compound 141, (S)-4,4-difluoro-7-((3-methoxyazetidin-1-yl)methyl)-2-(1H-pyrazol-4-yl)-4,5,7,8-tetrahydro-3H-1-thia-5a,8-diazabenzo[cd]azulen-9(6H)-one]
IC50 [2]: 1 to 10 nM
